The record followed here is US9493436B2, “Tyrosine phosphatase inhibitors and uses thereof to modulate the activity of enzymes involved in the pathology of Mycobacterium tuberculosis” (priority 2011, dated 2016).

Entries after “also recorded” stand apart in the source; their conditions may differ.

The target in one assay is Meg2 (Homo sapiens, UniProt P43378). Particulars: read-out: IC50 (μM) Meg2.
Another assay concerns the target T1, VHX (Homo sapiens, UniProt Q9NRW4).
T1 sequence (Q9NRW4 1-184): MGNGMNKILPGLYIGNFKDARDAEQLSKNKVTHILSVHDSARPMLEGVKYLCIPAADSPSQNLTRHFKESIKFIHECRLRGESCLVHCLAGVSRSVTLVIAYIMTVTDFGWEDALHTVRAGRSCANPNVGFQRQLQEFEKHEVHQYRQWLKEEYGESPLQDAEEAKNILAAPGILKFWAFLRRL
Kind of assay: biochemical. It is filed as biochemical.

The target of another assay is T2, PTP1B (Homo sapiens, UniProt P18031).
T2 sequence (P18031 1-435): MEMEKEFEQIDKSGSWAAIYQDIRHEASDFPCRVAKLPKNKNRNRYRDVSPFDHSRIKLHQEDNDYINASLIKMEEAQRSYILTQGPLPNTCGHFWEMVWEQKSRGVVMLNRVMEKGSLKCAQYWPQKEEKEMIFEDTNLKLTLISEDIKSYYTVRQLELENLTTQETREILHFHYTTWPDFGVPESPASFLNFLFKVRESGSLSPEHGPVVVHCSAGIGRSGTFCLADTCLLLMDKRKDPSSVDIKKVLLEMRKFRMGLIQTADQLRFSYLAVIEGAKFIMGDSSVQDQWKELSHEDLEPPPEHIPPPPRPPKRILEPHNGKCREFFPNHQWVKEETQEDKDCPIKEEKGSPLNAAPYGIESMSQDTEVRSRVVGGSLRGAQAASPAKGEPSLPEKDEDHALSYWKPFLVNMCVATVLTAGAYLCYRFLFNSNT
Kind of assay: biochemical. The assay is classed as biochemical.

Another assay deals with FAP1 (Homo sapiens, UniProt Q12923). The experiment in a line: biochemical. The assay is classed as biochemical.
FAP1, sequence (Q12923 whole entry, species assumed): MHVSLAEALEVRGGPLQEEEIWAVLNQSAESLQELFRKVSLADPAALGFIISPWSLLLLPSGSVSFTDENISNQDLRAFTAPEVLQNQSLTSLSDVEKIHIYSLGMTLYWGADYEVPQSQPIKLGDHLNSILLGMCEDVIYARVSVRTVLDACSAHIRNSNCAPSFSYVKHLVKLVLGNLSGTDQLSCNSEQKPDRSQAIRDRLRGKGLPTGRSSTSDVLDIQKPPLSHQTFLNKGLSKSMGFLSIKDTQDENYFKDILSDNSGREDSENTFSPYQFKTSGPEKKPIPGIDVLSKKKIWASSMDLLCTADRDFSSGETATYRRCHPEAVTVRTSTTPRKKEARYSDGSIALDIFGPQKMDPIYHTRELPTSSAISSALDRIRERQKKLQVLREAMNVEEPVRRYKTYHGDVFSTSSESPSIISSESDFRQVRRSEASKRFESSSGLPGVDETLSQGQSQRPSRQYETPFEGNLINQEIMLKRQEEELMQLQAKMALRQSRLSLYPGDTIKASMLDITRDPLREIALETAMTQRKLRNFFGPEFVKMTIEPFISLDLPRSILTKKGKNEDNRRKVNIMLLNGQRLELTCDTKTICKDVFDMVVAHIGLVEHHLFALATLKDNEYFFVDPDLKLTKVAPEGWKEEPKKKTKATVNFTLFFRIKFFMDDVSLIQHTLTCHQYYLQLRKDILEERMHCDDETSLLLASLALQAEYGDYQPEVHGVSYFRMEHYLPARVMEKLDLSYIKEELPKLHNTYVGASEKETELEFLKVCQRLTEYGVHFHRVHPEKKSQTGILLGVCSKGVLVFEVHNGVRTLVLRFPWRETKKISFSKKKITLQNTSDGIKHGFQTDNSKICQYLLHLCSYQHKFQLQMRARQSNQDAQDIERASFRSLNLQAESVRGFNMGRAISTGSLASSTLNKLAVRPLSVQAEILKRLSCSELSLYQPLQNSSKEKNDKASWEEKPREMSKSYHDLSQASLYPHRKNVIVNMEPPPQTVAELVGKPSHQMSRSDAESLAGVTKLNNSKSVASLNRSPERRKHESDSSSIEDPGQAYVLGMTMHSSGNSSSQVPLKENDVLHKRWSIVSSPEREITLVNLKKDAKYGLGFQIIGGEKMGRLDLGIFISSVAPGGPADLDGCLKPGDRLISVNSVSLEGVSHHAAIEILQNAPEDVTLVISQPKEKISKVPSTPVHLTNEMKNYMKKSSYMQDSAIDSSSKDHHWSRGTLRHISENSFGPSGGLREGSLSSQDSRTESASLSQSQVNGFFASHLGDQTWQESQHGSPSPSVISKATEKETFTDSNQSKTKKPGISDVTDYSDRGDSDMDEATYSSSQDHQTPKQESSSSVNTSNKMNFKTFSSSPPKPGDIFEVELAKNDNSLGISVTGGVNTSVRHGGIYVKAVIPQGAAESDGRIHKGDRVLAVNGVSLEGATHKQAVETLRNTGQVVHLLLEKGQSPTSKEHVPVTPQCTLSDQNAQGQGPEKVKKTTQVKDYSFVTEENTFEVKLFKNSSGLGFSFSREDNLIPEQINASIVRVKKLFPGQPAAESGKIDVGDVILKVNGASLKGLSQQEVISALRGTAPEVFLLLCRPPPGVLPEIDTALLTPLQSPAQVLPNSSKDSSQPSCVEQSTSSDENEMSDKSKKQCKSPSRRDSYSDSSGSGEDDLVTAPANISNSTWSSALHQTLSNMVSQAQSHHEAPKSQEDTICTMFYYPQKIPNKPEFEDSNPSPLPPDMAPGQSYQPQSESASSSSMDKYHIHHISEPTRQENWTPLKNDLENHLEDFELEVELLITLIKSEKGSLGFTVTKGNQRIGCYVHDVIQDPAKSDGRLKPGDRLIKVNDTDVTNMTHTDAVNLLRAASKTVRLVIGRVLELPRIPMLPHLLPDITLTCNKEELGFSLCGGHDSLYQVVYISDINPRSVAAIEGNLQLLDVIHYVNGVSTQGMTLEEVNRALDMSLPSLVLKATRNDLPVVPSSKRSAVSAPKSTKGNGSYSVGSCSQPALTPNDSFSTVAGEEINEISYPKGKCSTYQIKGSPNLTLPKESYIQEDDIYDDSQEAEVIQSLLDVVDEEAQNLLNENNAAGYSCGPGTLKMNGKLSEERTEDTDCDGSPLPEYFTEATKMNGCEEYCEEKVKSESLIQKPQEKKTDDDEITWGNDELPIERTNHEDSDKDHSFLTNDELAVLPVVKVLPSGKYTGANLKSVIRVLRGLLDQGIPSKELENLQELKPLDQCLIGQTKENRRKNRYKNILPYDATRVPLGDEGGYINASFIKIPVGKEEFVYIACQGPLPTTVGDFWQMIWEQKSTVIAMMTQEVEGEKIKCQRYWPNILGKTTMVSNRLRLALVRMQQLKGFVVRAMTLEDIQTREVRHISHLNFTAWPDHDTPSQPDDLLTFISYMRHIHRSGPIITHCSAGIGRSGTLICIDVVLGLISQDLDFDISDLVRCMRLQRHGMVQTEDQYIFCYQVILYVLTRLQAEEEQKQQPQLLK
A further assay concerns the target T3, HePTP (Homo sapiens, UniProt P35236).
T3 sequence (P35236 1-360): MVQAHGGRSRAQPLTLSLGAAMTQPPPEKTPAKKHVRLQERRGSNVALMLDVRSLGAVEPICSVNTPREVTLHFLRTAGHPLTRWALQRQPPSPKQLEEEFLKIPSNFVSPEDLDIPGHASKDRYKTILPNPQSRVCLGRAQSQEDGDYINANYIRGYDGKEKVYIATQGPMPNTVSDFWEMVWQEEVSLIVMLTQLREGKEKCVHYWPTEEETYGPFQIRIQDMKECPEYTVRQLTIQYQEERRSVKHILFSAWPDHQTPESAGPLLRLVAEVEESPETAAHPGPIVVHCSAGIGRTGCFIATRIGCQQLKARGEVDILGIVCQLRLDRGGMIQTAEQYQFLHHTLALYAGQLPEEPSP
Kind of assay: biochemical. It is filed as biochemical.

The next assay has as its target Laforin (Homo sapiens, UniProt O95278). It is filed as biochemical.
The next assay deals with LMWPTP (Homo sapiens, UniProt P24666). Kind of assay: PTP selectivity panel: LMWPTP. The assay is classed as biochemical.
LMWPTP, sequence (P24666 whole entry, species assumed): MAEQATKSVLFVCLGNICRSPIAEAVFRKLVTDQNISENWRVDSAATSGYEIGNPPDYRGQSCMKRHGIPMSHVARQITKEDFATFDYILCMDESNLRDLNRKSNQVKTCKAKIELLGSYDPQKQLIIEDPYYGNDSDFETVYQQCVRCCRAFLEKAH
For the next assay, the target named is T4, CD45 (Homo sapiens, UniProt P08575).
T4 sequence (P08575 26-1306): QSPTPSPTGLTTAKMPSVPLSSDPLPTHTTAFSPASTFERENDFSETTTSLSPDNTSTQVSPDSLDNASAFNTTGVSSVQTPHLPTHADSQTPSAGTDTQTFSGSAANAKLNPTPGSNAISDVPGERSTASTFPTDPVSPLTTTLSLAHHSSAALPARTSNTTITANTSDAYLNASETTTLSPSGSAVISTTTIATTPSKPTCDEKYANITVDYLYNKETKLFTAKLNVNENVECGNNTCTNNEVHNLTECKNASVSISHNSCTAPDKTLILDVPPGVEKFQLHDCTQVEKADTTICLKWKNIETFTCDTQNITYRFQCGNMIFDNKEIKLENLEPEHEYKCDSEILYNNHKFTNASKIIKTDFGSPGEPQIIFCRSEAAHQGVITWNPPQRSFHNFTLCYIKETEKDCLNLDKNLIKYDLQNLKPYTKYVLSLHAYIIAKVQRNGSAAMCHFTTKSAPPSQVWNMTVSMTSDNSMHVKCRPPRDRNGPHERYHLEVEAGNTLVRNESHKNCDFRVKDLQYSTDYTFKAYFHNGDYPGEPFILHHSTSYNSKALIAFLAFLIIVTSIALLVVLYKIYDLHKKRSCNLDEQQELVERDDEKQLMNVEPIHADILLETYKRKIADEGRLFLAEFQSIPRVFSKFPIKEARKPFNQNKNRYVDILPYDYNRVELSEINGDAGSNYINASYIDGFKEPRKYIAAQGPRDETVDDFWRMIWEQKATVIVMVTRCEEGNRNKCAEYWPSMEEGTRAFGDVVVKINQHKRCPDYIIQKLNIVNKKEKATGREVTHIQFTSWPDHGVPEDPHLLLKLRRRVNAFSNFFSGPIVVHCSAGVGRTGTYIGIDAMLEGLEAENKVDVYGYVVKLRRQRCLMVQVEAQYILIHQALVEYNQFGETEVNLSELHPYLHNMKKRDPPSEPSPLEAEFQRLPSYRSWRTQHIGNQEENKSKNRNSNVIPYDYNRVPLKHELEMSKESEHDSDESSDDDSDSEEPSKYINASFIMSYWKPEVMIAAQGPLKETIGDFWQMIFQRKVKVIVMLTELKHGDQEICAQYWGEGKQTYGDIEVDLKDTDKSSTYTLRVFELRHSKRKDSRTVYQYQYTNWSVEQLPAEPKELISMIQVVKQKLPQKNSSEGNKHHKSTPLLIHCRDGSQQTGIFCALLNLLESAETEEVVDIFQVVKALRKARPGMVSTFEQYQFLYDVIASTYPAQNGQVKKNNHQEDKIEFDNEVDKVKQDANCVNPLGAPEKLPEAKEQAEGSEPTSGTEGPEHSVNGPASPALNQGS
Kind of assay: biochemical. The assay is classed as biochemical.

Another assay deals with T5, Cdc14A (Homo sapiens, UniProt Q9UNH5).
T5 sequence (Q9UNH5 1-594): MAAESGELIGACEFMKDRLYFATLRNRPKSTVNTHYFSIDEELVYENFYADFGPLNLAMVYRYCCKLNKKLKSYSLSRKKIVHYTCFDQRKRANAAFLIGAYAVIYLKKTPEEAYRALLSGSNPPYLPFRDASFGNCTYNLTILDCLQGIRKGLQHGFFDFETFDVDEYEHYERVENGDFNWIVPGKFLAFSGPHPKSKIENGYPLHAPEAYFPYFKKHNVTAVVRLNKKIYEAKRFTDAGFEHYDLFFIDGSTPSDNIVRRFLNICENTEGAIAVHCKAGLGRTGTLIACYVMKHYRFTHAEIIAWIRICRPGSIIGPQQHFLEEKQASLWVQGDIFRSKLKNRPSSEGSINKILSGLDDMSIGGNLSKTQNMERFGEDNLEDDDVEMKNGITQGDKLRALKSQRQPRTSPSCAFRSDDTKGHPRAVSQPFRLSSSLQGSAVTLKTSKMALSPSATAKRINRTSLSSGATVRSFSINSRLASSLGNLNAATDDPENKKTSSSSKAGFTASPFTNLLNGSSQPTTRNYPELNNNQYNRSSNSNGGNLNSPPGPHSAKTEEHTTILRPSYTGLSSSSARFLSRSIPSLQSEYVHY
Kind of assay: PTP selectivity panel: Cdc14A. It is filed as biochemical.

Another assay concerns the target T6, TC-PTP (Homo sapiens, UniProt P17706).
T6 sequence (P17706 1-415): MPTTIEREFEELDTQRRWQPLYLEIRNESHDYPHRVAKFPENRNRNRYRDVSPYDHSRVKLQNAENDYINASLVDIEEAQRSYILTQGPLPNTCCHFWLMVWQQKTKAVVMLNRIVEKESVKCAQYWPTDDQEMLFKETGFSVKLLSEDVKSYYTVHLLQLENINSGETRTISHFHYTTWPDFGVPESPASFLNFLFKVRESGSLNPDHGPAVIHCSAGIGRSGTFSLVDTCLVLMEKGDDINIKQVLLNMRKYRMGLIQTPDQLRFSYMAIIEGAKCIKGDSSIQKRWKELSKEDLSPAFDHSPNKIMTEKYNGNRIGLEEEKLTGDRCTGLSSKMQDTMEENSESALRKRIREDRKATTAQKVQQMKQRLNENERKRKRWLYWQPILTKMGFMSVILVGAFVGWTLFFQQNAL
Kind of assay: PTP selectivity panel: TC-PTP. It is filed as biochemical.

The next assay concerns the target SHP1 (Homo sapiens, UniProt P29350). The assay is classed as biochemical.
The subject of assay [1] is Akt phosphorylation in Raw264.7 cells expressing mPTPB. It is filed as cell-based, mouse. Particulars: macrophage cells expressing mPTPB, increasing concentrations.
Assay [2] deals with ERK1/2 phosphorylation in Raw264.7 cells expressing mPTPB. The experiment in a line: ERK phosphorylation in macrophage cells expressing mPTPB (western blot). The assay is classed as cell-based, mouse. Conditions: IFN-γ, L01Z08 especially at 120 and 240 nM. The protocol: As explained above, ERK phosphorylation is important in the cellular secretion pathway of IL-6. However, mPTPB blocks or inhibits the phosphorylation of ERK which reduces and potentially prevents IL-6 secretion altogether.
Raw264.7 mouse macrophages were cultured in Dulbecco's modified Eagle's medium (DMEM) supplemented with 10% FBS (Invitrogen), penicillin (50 units/mL), and streptomycin (50 μg/mL) under a humidified atmosphere containing 5% CO2 at 37° C. Transfected Raw264.7 cells (Vector, WT-mPTPB) were seeded in a 12-well plate at a density of 4×10^4 cells/well. The following day cells were treated with mPTPB inhibitor 213a for 1 hr, then stimulated with IFN-γ (200 U/ml) for 1 h. […]. Wash with ice-cold phosphate buffered saline, and lysed with lysis buffer on ice for 30 min. Cell lysate is then cleared by centrifuging at 13,000 rpm for 15 min. The phosphorylation of ERK1/2 and Akt was detected by western blotting.

Another assay has as its target T7, mPTPB (Mycobacterium tuberculosis, UniProt I6WXK4).
T7 construct: The full-length mPTPB with a N-terminal His6-tag was expressed and purified; His6 (N); made in house; host or cells: E. coli BL21/DE3 (pET28b-mPTPB)
T7 sequence (I6WXK4 1-276): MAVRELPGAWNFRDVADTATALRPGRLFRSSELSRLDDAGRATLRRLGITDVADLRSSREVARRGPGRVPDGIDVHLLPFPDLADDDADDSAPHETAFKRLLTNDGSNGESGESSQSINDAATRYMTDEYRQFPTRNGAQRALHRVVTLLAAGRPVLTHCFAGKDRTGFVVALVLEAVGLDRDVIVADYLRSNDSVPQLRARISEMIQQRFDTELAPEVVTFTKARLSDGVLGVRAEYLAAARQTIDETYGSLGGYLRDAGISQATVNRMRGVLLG
Kind of assay: biochemical. The assay is classed as biochemical.

In the next assay the target is mPTPA (Mycobacterium tuberculosis, UniProt P9WIA1). Kind of assay: PTP selectivity panel: mPTPA. It is filed as biochemical.
mPTPA, sequence (P9WIA1 whole entry): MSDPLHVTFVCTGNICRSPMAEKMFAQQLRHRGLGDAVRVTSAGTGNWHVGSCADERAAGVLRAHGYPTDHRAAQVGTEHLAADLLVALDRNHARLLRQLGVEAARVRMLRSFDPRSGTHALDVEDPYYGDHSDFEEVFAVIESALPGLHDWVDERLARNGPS

As usually defined, the IC50 is the midpoint of a concentration-inhibition curve. By Ki is commonly meant a dissociation constant, usually derived from enzyme kinetics or from competition with a known ligand.

SHP1, sequence (P29350 whole entry): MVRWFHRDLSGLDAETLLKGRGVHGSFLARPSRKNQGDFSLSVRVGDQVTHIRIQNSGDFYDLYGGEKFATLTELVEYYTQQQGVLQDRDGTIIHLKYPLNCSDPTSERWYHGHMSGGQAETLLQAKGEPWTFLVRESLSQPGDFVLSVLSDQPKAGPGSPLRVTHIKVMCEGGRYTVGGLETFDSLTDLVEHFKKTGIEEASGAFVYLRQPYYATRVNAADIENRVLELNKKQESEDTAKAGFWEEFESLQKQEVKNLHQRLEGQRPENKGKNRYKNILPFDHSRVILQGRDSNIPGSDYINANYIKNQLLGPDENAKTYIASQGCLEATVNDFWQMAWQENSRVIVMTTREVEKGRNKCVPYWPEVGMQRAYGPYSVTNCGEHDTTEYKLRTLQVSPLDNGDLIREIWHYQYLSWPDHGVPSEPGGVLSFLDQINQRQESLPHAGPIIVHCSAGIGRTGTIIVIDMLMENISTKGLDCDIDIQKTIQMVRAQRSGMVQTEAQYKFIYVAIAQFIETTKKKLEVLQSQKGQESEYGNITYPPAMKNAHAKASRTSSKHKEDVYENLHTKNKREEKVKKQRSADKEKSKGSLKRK
Meg2, sequence (P43378 whole entry): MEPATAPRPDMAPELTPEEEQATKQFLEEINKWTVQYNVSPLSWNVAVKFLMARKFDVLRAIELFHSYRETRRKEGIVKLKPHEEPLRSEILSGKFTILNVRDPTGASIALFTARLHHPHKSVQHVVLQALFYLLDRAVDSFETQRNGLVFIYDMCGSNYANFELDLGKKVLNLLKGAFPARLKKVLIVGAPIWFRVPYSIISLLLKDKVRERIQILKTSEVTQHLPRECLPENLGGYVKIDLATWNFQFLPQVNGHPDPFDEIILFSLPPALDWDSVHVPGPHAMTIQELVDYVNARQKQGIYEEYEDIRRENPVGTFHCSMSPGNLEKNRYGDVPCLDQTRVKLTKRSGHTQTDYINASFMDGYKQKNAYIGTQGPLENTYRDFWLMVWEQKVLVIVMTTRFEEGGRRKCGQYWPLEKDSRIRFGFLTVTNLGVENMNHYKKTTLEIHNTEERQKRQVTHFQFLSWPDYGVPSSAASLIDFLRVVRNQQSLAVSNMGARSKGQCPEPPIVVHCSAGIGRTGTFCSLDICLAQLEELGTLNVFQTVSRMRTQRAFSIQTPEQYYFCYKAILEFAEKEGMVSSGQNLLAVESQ
Laforin, sequence (O95278 whole entry, species assumed): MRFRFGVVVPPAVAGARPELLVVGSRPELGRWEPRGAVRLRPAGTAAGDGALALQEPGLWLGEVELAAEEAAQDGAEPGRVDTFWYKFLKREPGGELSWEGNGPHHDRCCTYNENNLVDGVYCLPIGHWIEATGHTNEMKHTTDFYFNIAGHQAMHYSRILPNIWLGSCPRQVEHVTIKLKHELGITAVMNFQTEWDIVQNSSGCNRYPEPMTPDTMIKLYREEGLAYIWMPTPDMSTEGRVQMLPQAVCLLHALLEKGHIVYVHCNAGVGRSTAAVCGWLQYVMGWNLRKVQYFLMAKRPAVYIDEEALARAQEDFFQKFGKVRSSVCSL

As to `O=C(O)c1cc2c(C#Cc3ccc(OC(F)(F)F)cc3)c(-c3ccccc3)oc2cc1O` [33 (L01Z09)], the IC50 on Meg2 turned out to be 4 ± 0.2 µM; at VHX, 1.9 ± 0.1 µM; against PTP1B, 5.1 ± 0.3 µM; at FAP1, 1.6 ± 0.1 µM; against HePTP it was 1.9 ± 0.3 µM; on Laforin, 31 ± 4 µM. Also, the IC50 on LMWPTP was determined as 3 ± 0.1 µM; at CD45, 3.6 ± 0.2 µM; on Cdc14A, 6 ± 1 µM; at TC-PTP it was 3.8 ± 0.2 µM; against SHP1, 2.5 ± 0.1 µM.

Take `Cn1c(-c2ccccc2C(F)(F)F)c(C(=O)CCNC(=O)c2cc(Br)cc(Br)c2)c2cc(C(=O)O)c(O)cc21` [Compound 213a, 3-(3-(3,5-dibromobenzamido)propanoyl)-6-hydroxy-1-methyl-2-(2-(trifluoromethyl)phenyl)-1H-indole-5-carboxylic acid]: in [1], the “AKT phosphorylation / Akt activation” value is listed as “blocks Akt activation; also recorded: decreased the Akt activity”. The “ERK phosphorylation / ERK1/2 activity” value in assay [2] is reported as “restore ERK1/2 activity; also recorded: increased the ERK activity”. Besides, at mPTPB, the “more potent than parent compound 207a” value was found to be 14 fold and the “more selective than parent compound 207a” value stood at 43 fold. Besides, the “In % @ 1 μM (mPTPB)” value at mPTPB (1 μM, library 13 screened in situ) is listed as 81%. For the same compound, the “mode of mPTPB inhibition” value on mPTPB (kinetic analyses, Lineweaver-Burk plot) is “Non-competitive inhibitor; also recorded: reversible and noncompetitive inhibitor”. The compound further returned an inhibition constant Ki on mPTPB (pH 7.0, 25° C.) of 0.05 ± 0.002 µM. Also, at mPTPB (pNPP substrate, pH 7.0, 25° C., read-out: IC50 (μM) against mPTPB), the IC50 is 0.079 ± 0.01 µM. Further, at mPTPB (panel of 11 PTPs), the “selectivity for mPTPB over the other ten PTPs” value is recorded as “over 90 fold”. Also, the midpoint of inhibition on mPTPA, the IC50, lay at 10.9 ± 0.5 µM.
